According to US6624157B2, “Thiadioxobenzodiazepine inhibitors of farnesyl protein transferase” (Bristol-Myers Squibb Company, priority 1996, dated 2003):
Where a name gives a salt, the structure may show the parent alone.

`O=S1(=O)c2ccccc2N(Cc2cnc[nH]2)CCN1CCc1ccccc1` (as salt: hydrochloride) [Example 2, 2,3,4,5-Tetrahydro-5-(1H-imidazol-4-ylmethyl)-2-(2-phenylethyl)-1,2,5-benzothiadiazepine, 1,1-dioxide, monohydrochloride] gave a melting point of 95 °C. With `O=S1(=O)NC(Cc2ccccc2)CN(Cc2cnc[nH]2)c2ccc(Br)cc21` (stereo not shown) (as salt: hydrochloride) [Example 9, N-[2,3,4,5-Tetrahydro-8-bromo-5-(1H-imidazol-4-ylmethyl)-3-(phenylmethyl)-1,2,5-benzothiadiazepine, 1,1-dioxide, monohydrochloride] the melting point was 180 °C. In the case of `CN1C(Cc2ccccc2)CN(Cc2cnc[nH]2)c2ccc(Br)cc2S1(=O)=O` (stereo not shown) (as salt: hydrochloride) [Example 10, 2,3,4,5-Tetrahydro-8-bromo-2-methyl-5-(1H-imidazol-4-ylmethyl)-3-(phenylmethyl)-1,2,5-benzothiadiazepine, 1,1-dioxide, monohydrochloride], the melting point was 140 °C. `O=S1(=O)c2ccccc2N(Cc2cnc[nH]2)CCN1Cc1cccc2ccccc12` (as salt: hydrochloride) [Example 1, 2,3,4,5-Tetrahydro-5-(1H-imidazol-4-ylmethyl)-2-(1-naphthalenylmethyl)-1,2,5-benzothiadiazepine, 1,1-dioxide, monohydrochloride] gave a melting point of 128 °C.
